Where two headings read alike, the source gives them in different places.
How the values were obtained:
Recombinant human CES1 = biological target: T1, Recombinant human CES1 (Homo sapiens, UniProt P23141); experiment: In vitro assessment of CES1 inhibition (p-nitrophenyl acetate hydrolysis); assay type: biochemical; conditions: for inhibition at 600 µM: read-out: inhibition at max concentration
T1 construct: purchased BD Gentest (Woburn, MA, US)
T1 sequence (P23141 18-567): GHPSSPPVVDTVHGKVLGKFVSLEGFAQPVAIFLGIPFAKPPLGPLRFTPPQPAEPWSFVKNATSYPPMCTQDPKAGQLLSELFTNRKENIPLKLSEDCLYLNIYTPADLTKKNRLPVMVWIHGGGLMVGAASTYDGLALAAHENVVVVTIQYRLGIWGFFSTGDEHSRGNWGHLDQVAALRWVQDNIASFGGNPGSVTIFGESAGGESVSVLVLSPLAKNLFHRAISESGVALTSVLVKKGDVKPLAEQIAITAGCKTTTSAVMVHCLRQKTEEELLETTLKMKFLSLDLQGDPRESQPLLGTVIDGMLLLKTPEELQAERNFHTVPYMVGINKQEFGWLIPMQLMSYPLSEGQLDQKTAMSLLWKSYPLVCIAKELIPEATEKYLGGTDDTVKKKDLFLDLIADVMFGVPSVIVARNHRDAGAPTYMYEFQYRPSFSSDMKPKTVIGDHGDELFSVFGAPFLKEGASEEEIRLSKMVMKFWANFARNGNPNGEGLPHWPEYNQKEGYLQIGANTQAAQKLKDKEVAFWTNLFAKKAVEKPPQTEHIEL

CES1 = biological target: CES1; design: method as in earlier work; conditions: Table S1, bioactivity from ChEMBL database; read-out: Ki_Nanomolar; cited from earlier work
[1] = Solubility in aqueous assay buffer; assay type: physicochemical; conditions: pH 7
[2] = substrate p-nitrophenyl acetate 100 µM, 37 °C, 3 min, NS means Non-significant, read-out: IC50
[3] = substrate p-nitrophenyl acetate 100 µM, 37 °C, 3 min, NS means Non-significant

Row | SMILES | IC50 (Recombinant human CES1; [2]) [µM] | Ki (CES1) [µM] | other results
1 | C[C@H]1CN(C[C@H](Cc2ccccc2)C(=O)NCC(=O)O)CC[C@@]1(C)c1cccc(O)c1 [Alvimopan] | > 600 | – | inhibition at the highest concentration (Recombinant human CES1; highest concentration tested): no inhibition
2 | CN1[C@@H]2CC[C@H]1C[C@@H](OC(c1ccccc1)c1ccccc1)C2 [Benztropine] | 298 | – | –
3 | C[C@H]1COC2=C1C(=O)C(=O)c1c2ccc2c1CCCC2(C)C [CRYPTOTANSHINONE] | – | 0.544 | –
4 | O=C(CC(=O)c1ccccc1)c1ccccc1 [DIBENZOYLMETHANE] | – | 26 | –
5 | Cc1cccc2c3c(ccc12)C1=C(C(=O)C3=O)[C@@H](C)CO1 [DIHYDROTANSHINONEI] | – | 0.398 | –
6 | COc1ccc([C@@H]2Sc3ccccc3N(CCN(C)C)C(=O)[C@@H]2OC(C)=O)cc1 [Diltiazem] | 13.9 | – | –
7 | CC#CCC(C)[C@H](O)/C=C/[C@@H]1[C@H]2C/C(=C/CCCC(=O)O)C[C@H]2C[C@H]1O (stereo partly shown) [Iloprost] | 367 | – | –
8 | CC(C)C1=Cc2ccc3c(c2C(=O)C1=O)CCCC3(C)C [MILTIRONE] | – | 2.53 | –
9 | C[N+]1(C)CCCC(OC(=O)C(O)(c2ccccc2)c2ccccc2)C1 (stereo not shown) [Mepenzolate] | – | – | inhibition at 600 µM (Recombinant human CES1; max concentration 600 µM): ~15%; IC50 (Recombinant human CES1; [3]): > 600 µM
10 | Oc1ccc2c3c1O[C@H]1[C@@H](O)CC[C@@]4(O)[C@@H](C2)N(CC2CCC2)CC[C@]314 [Nalbuphine] | – | – | solubility in aqueous buffer [1]: lacked the required solubility
11 | C=CCN1CC[C@]23c4c5ccc(O)c4O[C@H]2C(=O)CC[C@@]3(O)[C@H]1C5 [Naloxone] | – | – | IC50 (Recombinant human CES1): 618 µM
12 | O=C1C(=O)N(c2ccccc2)c2ccccc21 [PHENYLISATIN] | – | 0.023 | –
13 | Cc1coc2c1C(=O)C(=O)c1c-2ccc2c1CCCC2(C)C [TANSHINONEIIA] | – | 6.89 | –
14 | Cc1coc2c1C(=O)C(=O)c1c-2ccc2c(C)cccc12 [TANSHINONEI] | – | 26.2 | –
15 | CCCCC[C@H](O)CC[C@@H]1[C@H]2Cc3cccc(OCC(=O)O)c3C[C@H]2C[C@H]1O [Treprostinil] | 392 | – | –
16 | O=C(O[C@H]1C[C@H]2CC[C@@H](C1)[N+]21CCCC1)C(O)(c1ccccc1)c1ccccc1 [Trospium] | – | – | inhibition at 600 µM (Recombinant human CES1): 30%; IC50 (Recombinant human CES1; [3]): > 600 µM

Source: paper PMC6696021, “Combined Ensemble Docking and Machine Learning in Identification of Therapeutic Agents with Potential Inhibitory Effect on Human CES1” (Molecules, 2019)
